“Also recorded” adds a separate entry of the source. Where two headings read alike, the source gives them in different places.

18 molecules from US10426159B1, “Highly efficient enhancers for antifreeze protein activity” (The Trustees of California State University, priority 2012, dated 2019) can be followed below.

Series [1] has as its system DAFPs: DAFP-1, -2, -4, and -6. Nature of the series: TH enhancement by exemplified enhancers for DAFPs. It is filed as biochemical, Dendroides canadensis.
In another series the test system is DAFP-1. Nature of the series: Antifreeze (TH) activity measurements by differential scanning calorimetry: enhancement of TH activity of DAFP-1. The format is biochemical, Dendroides canadensis. The note with it: for enhancement ability for the TH activity of DAFP-1 (in words, relative) / molar enhancement effectiveness order: pH 7.5; for molar enhancement effectiveness order: FIG. 2 and FIG. 3. From the text:
(§1) The pH of the final samples was 7.5.
On the technique in general: Differential scanning calorimetry records heat flow against a reference as temperature is scanned.

The nature of series [2]: Solubility of enhancer in the TH test system. It is filed as physicochemical.
From the text: as §1

Series [3] addresses T1, Dendroides canadensis antifreeze protein DAFP-1 (SEQ. ID 1, amino acid 28 through amino acid 108) (Dendroides canadensis, UniProt O46352).
T1 construct: b42 prefers 28-108
T1 sequence (O46352 26-108): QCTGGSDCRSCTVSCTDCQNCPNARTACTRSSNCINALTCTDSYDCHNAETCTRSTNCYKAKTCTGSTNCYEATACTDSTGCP
Nature of the series: Size-exclusion HPLC (Hummel and Dreyer gel filtration method) of NADH binding to DAFP-1. The note with it: pH 7.00, ambient temperature, DAFP-1 1.5-20 μM, NADH 0-270 μM, nonlinear regression. The procedure:
The formation of 1:1 complex of DAFP-1 and NADH was further confirmed by HPLC analysis. With the gel filtration method of Hummel and Dreyer, the size exclusion column can be equilibrated with a buffer containing the ligand at a known concentration. The protein sample prepared in the buffer (containing the ligand at the same concentration) is injected into the equilibrated column. If binding occurs, the concentrations of the ligand in the elution buffer and in the elution are usually different. […] The bound ligand can be determined more precisely using the internal calibration method. […]
The binding of NADH to DAFP-1 was characterized using HPLC by an improved gel filtration method of Hummel and Dreyer (Hummel and Dreyer, 1962; Parsons, 1980). […] The eluates were monitored at 220 nm. […] The initial concentrations of NADH were determined using the molar extinction coefficient (ε340=6.22×10^3M^−1cm^−1) (Dawson et al., 1985). […] The amount of bound NADH was determined by the internal calibration method (Parsons 1980; Sun and Hsiao, 1993). The amount of free NADH is obtained fromthe difference of total NADH and calculated bound NADH. […]
Background: Size exclusion chromatography separates by hydrodynamic size, large species first.

As to `O=C[C@H](F)[C@@H](O)[C@H](O)[C@H](O)CO` [2-fluoro-2-deoxy-D-glucose], the “increase of the TH activity of DAFPs” value in series [1] is 2 fold. The same measure, in the same setting: with `O=c1[nH]c(=O)n([C@@H]2O[C@H](CO)[C@@H](O)[C@H]2O)cc1F` [5-Fluorouridine] the figure was 2 fold.

Regarding `Nc1ncnc2c1ncn2[C@@H]1O[C@H](COP(=O)(O)OP(=O)(O)O)[C@@H](O)[C@H]1O` [ADP, adenosine 5′-diphosphate], the “enhancement ability for the TH activity of DAFP-1 (in words, relative)” value (shortened to “enhancement ability … (in words, relative)”) with DAFP-1 (DSC, DAFP-1 453 μM) is listed as “less than that of ADPR; also recorded: lower than that of AMP”.

For `Nc1ncnc2c1ncn2[C@@H]1O[C@H](COP(=O)(O)OP(=O)(O)OC[C@H]2OC(O)[C@H](O)[C@@H]2O)[C@@H](O)[C@H]1O` (stereo partly shown) [ADPR, adenosine 5′-diphosphoribose], in the series with DAFP-1 (DSC, DAFP-1 453 μM), the “enhancement ability … (in words, relative)” value is on record as “most efficient enhancement ability among these fragments” and the “molar enhancement effectiveness order” value is given as “ADPR>AMP>adenosine>R5P>pyrophosphate>ribose”. Take `Nc1ncnc2c1ncn2[C@@H]1O[C@H](COP(=O)(O)O)[C@@H](O)[C@H]1O` [AMP, (−)-adenosine 5′-monophosphate]: the “molar enhancement effectiveness order” value with DAFP-1 (DSC, DAFP-1 453 μM) is on record as “ADPR>AMP>adenosine>R5P>pyrophosphate>ribose”. For `Nc1ncnc2c1ncn2[C@@H]1O[C@H](COP(=O)(O)OP(=O)(O)OP(=O)(O)O)[C@@H](O)[C@H]1O` [ATP], the “increase of the TH activity of DAFPs” value in series [1] was “at least 5 fold”. On to `CC(C)(COP(=O)(O)OP(=O)(O)OC[C@H]1O[C@@H](n2cnc3c(N)ncnc32)[C@H](O)[C@@H]1OP(=O)(O)O)[C@@H](O)C(=O)NCCC(=O)NCCS` [CoA, coenzyme A], for which the “enhancement ability … (in words, relative)” value in the series with DAFP-1 (DSC, DAFP-1 453 μM) is “less than those of NADH and NAD analogs”. Take `Cc1cc2nc3c(=O)[nH]c(=O)nc-3n(C[C@H](O)[C@H](O)[C@H](O)COP(=O)(O)OP(=O)(O)OC[C@H]3O[C@@H](n4cnc5c(N)ncnc54)[C@H](O)[C@@H]3O)c2cc1C` [FAD, flavin adenine dinucleotide]: the “enhancement ability … (in words, relative)” value in the series on DAFP-1 (DSC, DAFP-1 453 μM) was “less than those of NADH and NAD analogs”. Also, in series [2], the “solubility (in words)” value was “limited by its solubility”.

Regarding `NC(=O)c1ccc[n+]([C@@H]2O[C@H](COP(=O)([O-])OP(=O)(O)OC[C@H]3O[C@@H](n4cnc5c(N)ncnc54)[C@H](O)[C@@H]3O)[C@@H](O)[C@H]2O)c1` [NAD, (3-nicotinamide adenine dinucleotide], in the series with DAFP-1 (DSC, DAFP-1 453 μM), the “enhancement ability … (in words, relative)” value was “very similar to that of its reduced form, NADH, although slightly lower” and the “molar enhancement effectiveness order” value is “NADH>NAD>TNAD>PAAD”. On to `NC(=O)C1=CN([C@@H]2O[C@H](COP(=O)(O)OP(=O)(O)OC[C@H]3O[C@@H](n4cnc5c(N)ncnc54)[C@H](O)[C@@H]3O)[C@@H](O)[C@H]2O)C=CC1` [NADH, (3-nicotinamide adenine dinucleotide, reduced], for which the “molar enhancement effectiveness order” value in the series on DAFP-1 (DSC, DAFP-1 453 μM) is “NADH>NAD>TNAD>PAAD”. In series [3], this molecule showed a Kd of 280 ± 20 nM.

`NC(=O)C1=CN([C@@H]2O[C@H](COP(=O)(O)OP(=O)(O)OC[C@H]3O[C@@H](n4cnc5c(N)ncnc54)[C@H](OP(=O)(O)O)[C@@H]3O)[C@@H](O)[C@H]2O)C=CC1` [NADPH, (3-nicotinamide adenine dinucleotide phosphate, reduced]: the “enhancement ability … (in words, relative)” value in the series on DAFP-1 (DSC, DAFP-1 453 μM) is on record as “most efficient enhancer; also recorded: much higher than any of the known enhancers”. `Nc1ncnc2c1ncn2C1OC(COP(=O)(O)OP(=O)(O)OCC2OC([n+]3cccc(C=O)c3)C(O)C2O)C(O)C1O` (stereo not shown) [PAAD, 3-pyridine aldehyde adenine dinucleotide]: in the series on DAFP-1 (DSC, DAFP-1 453 μM), the “enhancement ability … (in words, relative)” value is “very efficient enhancement ability; also recorded: least effective enhancer among the analogs” and the “molar enhancement effectiveness order” value is reported as “NADH>NAD>TNAD>PAAD”. As for `O=C[C@H](O)[C@H](O)[C@H](O)COP(=O)(O)O` [R5P, D-ribose-5-phosphate], the “molar enhancement effectiveness order” value with DAFP-1 (DSC, DAFP-1 453 μM) is recorded as “ADPR>AMP>adenosine>R5P>pyrophosphate>ribose”. Take `NC(=S)c1ccc[n+]([C@@H]2O[C@H](COP(=O)([O-])OP(=O)(O)OC[C@H]3O[C@@H](n4cnc5c(N)ncnc54)[C@H](O)[C@@H]3O)[C@@H](O)[C@H]2O)c1` [TNAD, thionicotinamide adenine dinucleotide]: in the series with DAFP-1 (DSC, DAFP-1 453 μM), the “enhancement ability … (in words, relative)” value was “very efficient enhancement ability” and the “molar enhancement effectiveness order” value is “NADH>NAD>TNAD>PAAD”. For `Nc1ncnc2c1ncn2[C@@H]1O[C@H](CO)[C@@H](O)[C@H]1O` [adenosine], in the series on DAFP-1 (DSC, DAFP-1 453 μM), the “molar enhancement effectiveness order” value is “ADPR>AMP>adenosine>R5P>pyrophosphate>ribose”. Also, the “enhancement ability for the TH activity of DAFP-1 at 0.080M” value with DAFP-1 (enhancer 0.080M) is “lower than that of ADP”. For the same molecule, the “solubility (in words)” value in series [2] (TH test system) is listed as “low solubility”. On to `O=P(O)(O)OP(=O)(O)O` [pyrophosphate], for which, in the series with DAFP-1 (DSC, DAFP-1 453 μM), the “molar enhancement effectiveness order” value was “ADPR>AMP>adenosine>R5P>pyrophosphate>ribose”. With `O=C[C@H](O)[C@H](O)[C@H](O)CO` [ribose, D-(−)-ribose], in the series on DAFP-1 (DSC, DAFP-1 453 μM), the “enhancement ability … (in words, relative)” value is listed as “least enhancement” and the “molar enhancement effectiveness order” value is “ADPR>AMP>adenosine>R5P>pyrophosphate>ribose”.

B1: DAFP-1: Dendroides canadensis antifreeze protein, recombinantly expressed in E. coli; SEQ. ID 1 amino acids 28 through 108 (protein, listed as Dendroides canadensis)
chain: TGGSDCRSCTVSCTDCQNCPNARTACTRSSNCINALTCTDSYDCHNAETCTRSTNCYKAKTCTGSTNCYEATACTDSTGCP
notes: Dendroides canadensis antifreeze protein, recombinantly expressed in E. coli; ID 1 amino acids 28 through 108
B1: in the series with DAFP-1 (DAFP-1 453 μM, no enhancer, DSC), the “TH activity of the protein sample alone” value came to 0.69±0.01 °C. For the same molecule, the “TH activity of DAFP-1 as a function of pH” value with DAFP-1 (pH 2 to pH 12) is given as “unchanged”.

What is called Kd is the constant that tells how readily two partners part at equilibrium. Low values mean a tighter complex, high ones a looser complex.
